According to US5270332A, “Cholesteral lowering agents” (Merck & Co., Inc., priority 1992, dated 1993):

Assays:
[1] = molecular target: T1, squalene synthase (rat liver enzyme) (Rattus norvegicus, UniProt Q02769); assay: Squalene synthase assay using rat liver microsomes; assay type: biochemical; details: [3H]farnesyl-pyrophosphate, 30° C., 20 minutes
T1 construct: from tissue; host or cells: liver microsomes of male Charles River CD rats fed 0.1% lovastatin for 4 days
T1 sequence (Q02769 1-416): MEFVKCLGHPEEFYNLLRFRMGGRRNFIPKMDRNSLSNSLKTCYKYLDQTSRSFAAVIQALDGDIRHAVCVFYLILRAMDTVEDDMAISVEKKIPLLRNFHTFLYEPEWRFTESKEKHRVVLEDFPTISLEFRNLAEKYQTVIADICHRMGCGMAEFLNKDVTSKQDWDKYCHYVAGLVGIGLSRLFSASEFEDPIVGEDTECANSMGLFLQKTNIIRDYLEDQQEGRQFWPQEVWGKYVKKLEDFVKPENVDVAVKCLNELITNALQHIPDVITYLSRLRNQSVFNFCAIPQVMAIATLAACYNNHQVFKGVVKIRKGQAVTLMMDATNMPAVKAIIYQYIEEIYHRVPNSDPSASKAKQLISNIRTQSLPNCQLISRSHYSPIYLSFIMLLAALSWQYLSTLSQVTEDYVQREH
Description: The squalene synthase assay using rat liver microsomes is described below:
Preparation of Rat Liver Microsomes
Male, Charles River CD rats (120 to 150 g) were fed a diet containing 0.1% lovastatin for 4 days. The livers from these rats were homogenized in 5 volumes (ml/g) of ice cold 50 mM HEPES (4-(2-hydroxyethyl)-1-piperazine ethanesulfonic acid), 5 mM EDTA (ethylenediaminetetraacetic acid) pH 7.5 with a Potter-Elvehjem type tissue grinder. The homogenate was centrifuged twice at 20,000×g for 15 minutes at 4° C., discarding the pellet each time. The supernatant was then centrifuged at 100,000×g for 1 hour at 4° C. The resulting microsomal pellet was resuspended in a volume of the above homogenizing buffer equal to one fifth the volume of the original homogenate. This microsomal preparation has a protein concentration of about 7 mg/ml. The microsomal suspensions were stored in aliquots at -70° C. […]
If a squalene epoxidase inhibitor (ingredient 7, above) is not used, the assay mix is degassed under a vacuum and flushed with N2. […] Five ml of scintillation fluid was added to the heptane solution and radioactivity was determined by liquid scintillation counting.
Percent inhibition is calculated by the formula: [formula]
IC50 values were determined by plotting the log of the concentration of the test compound versus the percentage inhibition. […]

[2] = molecular target: T2, squalene synthase (human HepG2 enzyme) (Homo sapiens, UniProt P37268); assay: Squalene synthase assay, human HepG2 cell enzyme; assay type: biochemical; details: 3 μM 3H-farnesyl pyrophosphate, 30°, 20 minutes
T2 construct: The resulting pellet from the 100,000×g centrifugation, containing the squalene synthase, was resuspended in 5 ml of enzyme suspension buffer; endogenous in cells; host or cells: HepG2 cells (ATCC HB 8065), 100,000×g microsomal pellet
T2 sequence (P37268 1-417): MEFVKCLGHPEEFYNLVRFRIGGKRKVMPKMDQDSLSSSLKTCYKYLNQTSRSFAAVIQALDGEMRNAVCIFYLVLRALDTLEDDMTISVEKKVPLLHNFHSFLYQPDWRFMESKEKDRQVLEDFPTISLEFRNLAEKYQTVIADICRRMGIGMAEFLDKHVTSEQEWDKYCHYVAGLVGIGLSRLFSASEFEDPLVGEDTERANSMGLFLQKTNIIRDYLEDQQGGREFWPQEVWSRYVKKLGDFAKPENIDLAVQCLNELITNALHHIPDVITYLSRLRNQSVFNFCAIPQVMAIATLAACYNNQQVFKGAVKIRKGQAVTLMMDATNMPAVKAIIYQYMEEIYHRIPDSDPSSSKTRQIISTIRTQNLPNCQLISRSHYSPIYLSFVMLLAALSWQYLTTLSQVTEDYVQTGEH
Description: The intrinsic squalene synthase inhibitory activity of representative compounds of this invention was also measured by the standard in vitro protocol described below:
PREPARATION OF HUMAN HepG2 cell ENZYME
1. SOURCE: HEPG2 CELL LINE (Liver, hepatoblastoma, Human) ATCC No. HB 8065
2. CELL GROWTH AND MAINTENANCE
Culture Medium: Minimum essential medium (MEM) with non essential amino acids, sodium pyruvate, and 10% fetal bovine serum. The medium was changed twice weekly. […] The growth medium was prepared as listed below:
SUBCULTURE PROCEDURE: The medium was removed and washed with PBS (Phosphate-Buffered Saline 15.6 mM. pH 7.0). Fresh trypsin (0.25%)-EDTA (0.02%) with Hank's Balanced Salt solution was added and the flask was allowed to stand for a minute before the trypsin was removed. The flask was incubated at 37° C. until cells detached. Fresh medium was added and the cells were dispersed and dispensed into new flasks. Subcultivation ration: 1:6. […]
HARVEST: The medium was removed and the cells were washed with PBS. […] Cells 1 were counted (2.5×10^9 yield from 18 flasks (75cm^2)), and resuspended in 10 ml of 50 mM HEPES (N-[2-Hydroxyethyl]piperazine-N'-[2-ethane sulfonic acid]) containing 5 mM MgCl2, 2 mM MnCl2, 10 mM DTT, pH 7.5 (enzyme suspension buffer). […]

Ras farnesylation = details: literature (Hancock et al.; Casey et al.; Schafer et al.); cited from earlier work

CC(O)C(O)CCCCC=CCCCCC(=O)OC1C(O)C2(CCC(C)C(O)C(C)CC=Cc3ccccc3)OC(C(=O)O)C(O)(C(=O)O)C1(C(=O)O)O2 (stereo not shown) [Compound A]
IC50 [1]: 0.0056 µM
IC50 [2]: 0.031 µM

CC[C@H](C)C(=O)O[C@H]1CCC=C2C=C[C@H](C)[C@H](CC[C@@H]3C[C@@H](O)CC(=O)O3)[C@H]21 [compactin]
Inhibition of Ras farnesylation in vivo (Ras farnesylation): Inhibition of Ras farnesylation in vivo has been demonstrated

CC[C@H](C)C(=O)O[C@H]1C[C@@H](C)C=C2C=C[C@H](C)[C@H](CC[C@@H]3C[C@@H](O)CC(=O)O3)[C@H]21 [lovastatin]
Inhibition of Ras farnesylation in vivo (Ras farnesylation): Inhibition of Ras farnesylation in vivo has been demonstrated
